Measurements from patent US11795177B2, “Substituted quinoline analogs as aldehyde dehydrogenase 1A1 (ALDH1A1) inhibitors” (THE UNITED STATES OF AMERICA, AS REPRESENTED BY THE …, priority 2017, dated 2023).
Structures can show the parent of a compound that is named as a salt.

Legend:
ALDH1A1 enzyme = target: T1, ALDH1A1 enzyme (Homo sapiens, UniProt P00352); assay: ALDH1A1 enzymatic assay (in vitro); type: biochemical; settings: ALDH1A1 enzyme 20 nM, NAD+ 1 mM, propionaldehyde 80 μM; read-out: ALDH1A1 IC50
T1 sequence (P00352 1-501): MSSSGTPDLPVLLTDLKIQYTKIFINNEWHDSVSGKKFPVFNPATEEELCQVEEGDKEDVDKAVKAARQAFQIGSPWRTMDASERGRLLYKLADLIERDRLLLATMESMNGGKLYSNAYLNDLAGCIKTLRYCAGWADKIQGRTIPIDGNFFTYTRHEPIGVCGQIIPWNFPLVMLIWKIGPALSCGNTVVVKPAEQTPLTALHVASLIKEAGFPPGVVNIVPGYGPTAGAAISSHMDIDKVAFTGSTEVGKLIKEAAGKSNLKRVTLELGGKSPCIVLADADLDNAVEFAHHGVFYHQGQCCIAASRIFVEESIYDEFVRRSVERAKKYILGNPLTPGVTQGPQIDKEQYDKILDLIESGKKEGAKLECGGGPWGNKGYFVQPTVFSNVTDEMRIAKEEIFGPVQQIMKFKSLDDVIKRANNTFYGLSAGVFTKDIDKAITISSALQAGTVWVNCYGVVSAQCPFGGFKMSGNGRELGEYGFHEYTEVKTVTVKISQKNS
Summary of the method: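 ALDH1A1 (20 nM final) in 100 mM HEPES pH 7.5, 0.01% Tween 20 was preincubated 15 min at RT with compound (968 pM–57.2 μM final), then started with 1 mM NAD+ and 80 μM propionaldehyde. NADH fluorescence (ex 340/em 450 nm) followed kinetically for 10 min; change normalized to no-inhibitor and no-enzyme controls for percent inhibition and curve fitting.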

MIA PaCa-2 cells = assay: MIA PaCa2 cell-based assay (1,536-well high-content imaging ALDEFLUOR assay); design: species or system human; settings: ALDEFLUOR BAAA substrate 500 nM, 30 minutes
Summary of the method: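 High-content ALDEFLUOR imaging readout: BAA-retaining cells in FITC channel scored against Hoechst-counted nuclei. Before imaging, MIA PaCa-2 cells seeded at 1,000 per well received final 500 nM BAAA and 0.5 nM Hoechst with compounds in 16-point series (1.4 nM to 47.8 μM), 30 min, 37° C.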

| Molecule | IC50 (ALDH1A1 enzyme) [nM] | IC50 (MIA PaCa-2 cells; Homo sapiens, 0.5 h) [nM] | IC50 (MIA PaCa-2 cells) [nM] |
| --- | --- | --- | --- |
| COc1ccc2c(N3CCC(C)(C#N)CC3)c(C(=O)N3CCN(S(=O)(=O)C4CC4)CC3)cnc2c1 [Example 106, 1-(3-(4-(cyclopropylsulfonyl)piperazine-1-carbonyl)-7-methoxyquinolin-4-yl)-4-methylpiperidine-4-carbonitrile] | < 500 | 1000 to 10000 |  |
| COc1ccc2ncc(C(=O)N3CCC(N4CCCC4)CC3)c(N3CCC4(CC3)OCCO4)c2c1 [Example 11, (6-methoxy-4-(1,4-dioxa-8-azaspiro[4.5]decan-8-yl)quinolin-3-yl)(4-(pyrrolidin-1-yl)piperidin-1-yl)methanone, TFA] | > 10000 | > 10000 |  |
| 4-(4-cyano-4-phenylpiperidin-1-yl)-6-fluoro-N-((1R,3R)-3-hydroxycyclobutyl)quinoline-3-carboxamide [Cpd. 330] | < 500 |  | < 500 |
| CC(=O)C1(c2ccccc2)CCN(c2c(C(=O)N3CCN(C(=O)C4CC4)CC3)cnc3ccc(F)cc23)CC1 [Example 215, 1-(1-(3-(4-(cyclopropanecarbonyl)piperazine-1-carbonyl)-6-fluoroquinolin-4-yl)-4-phenylpiperidin-4-yl)ethanone] | < 500 | 500 to 1000 |  |
| CC(C)(C#N)c1ccc(-c2c(C(=O)N3CCN(S(C)(=O)=O)CC3)ccc3ccccc23)cc1 [Example 299, 2-methyl-2-(4-(2-(4-(methylsulfonyl)piperazine-1-carbonyl)naphthalen-1-yl)phenyl)propanenitrile] | < 500 | < 500 |  |
| CC(=O)N1CCN(C(=O)c2cnc3ccccc3c2N2CCC(C)(C#N)CC2)CC1 [Example 96, 1-(3-(4-acetylpiperazine-1-carbonyl)quinolin-4-yl)-4-methylpiperidine-4-carbonitrile] | 1000 to 10000 | > 10000 |  |
| COc1ccc2ncc(C(=O)N3CCN(S(C)(=O)=O)CC3)c(N3CCC4(CC3)OCCO4)c2c1 [Example 13, (6-methoxy-4-(1,4-dioxa-8-azaspiro[4.5]decan-8-yl)quinolin-3-yl)(4-(methylsulfonyl)piperazin-1-yl)methanone, TFA] | < 500 | 1000 to 10000 |  |

Next, values leading:

| IC50 (ALDH1A1 enzyme) [nM] | IC50 (MIA PaCa-2 cells; Homo sapiens, 0.5 h) [nM] | IC50 (MIA PaCa-2 cells) [nM] | Molecule |
| --- | --- | --- | --- |
| < 500 | < 500 |  | CS(=O)(=O)N1CCN(C(=O)c2cnc3ccc(F)cc3c2-c2ccc(C3(CO)CC3)cc2)CC1 [Example 280, (6-fluoro-4-(4-(1-(hydroxymethyl)cyclopropyl)phenyl)quinolin-3-yl)(4-(methylsulfonyl)piperazin-1-yl)methanone] |
| < 500 | < 500 |  | CNC(=O)C1CCN(C(=O)c2cnc3ccc(F)cc3c2N2CCC(C#N)(c3ccccc3)CC2)CC1 [Cpd. 327, 1-(4-(4-cyano-4-phenylpiperidin-1-yl)-6-fluoroquinoline-3-carbonyl)-N-methylpiperidine-4-carboxamide] |
| 500 to 1000 | > 10000 |  | CCC(=O)N1CCN(C(=O)c2cnc3ccccc3c2N2CCC(C)(C#N)CC2)CC1 [Example 94, 4-methyl-1-(3-(4-propionylpiperazine-1-carbonyl)quinolin-4-yl)piperidine-4-carbonitrile] |
| < 500 | 1000 to 10000 |  | COc1ccc2ncc(C(=O)N3CCC(C(F)(F)F)CC3)c(N3CCC4(CC3)OCCO4)c2c1 [Example 12, (6-methoxy-4-(1,4-dioxa-8-azaspiro[4.5]decan-8-yl)quinolin-3-yl)(4-(trifluoromethyl)piperidin-1-yl)methanone, TFA] |
| < 500 | > 10000 |  | CCOC(=O)N1CCN(C(=O)c2cnc3ccc(F)cc3c2N2CCC(C)(C#N)CC2)CC1 [Example 88, Ethyl 4-(4-(4-cyano-4-methylpiperidin-1-yl)-6-fluoroquinoline-3-carbonyl)piperazine-1-carboxylate] |
| 1000 to 10000 | > 10000 |  | C[C@@H]1CN(C(=O)c2cnc3ccc(F)cc3c2N2CCC(C)(C#N)CC2)C[C@H](C)N1C(=O)C1CC1 [Example 228, 1-(3-((3R*,5S*)-4-(cyclopropanecarbonyl)-3,5-dimethylpiperazine-1-carbonyl)-6-fluoroquinolin-4-yl)-4-methylpiperidine-4-carbonitrile] |
